For one data set, the system named is authentic SARS-CoV-2. Nature of the data set: microbe, parasite or virus in culture. In kind it is cell-based. The settings on record: Vero E6.
The next data set relates to Vero E6 cells. Nature of the data set: Cell number of Vero E6 cells treated for 24 h. In kind it is cell-based, African green monkey. The note with it: Vero E6, 24 h. As to the method: FIG. 32A and FIG. 32B. […] A-B, Measurement of authentic SARS-CoV-2 infection and cell number in Vero E6 cells treated with (A) halofuginone (HF) or (B) the 2R,3S-(+) enantiomer for 24 h. Data shown as mean±S.D.

The test system of data set [1] is cell surface heparan sulfate of Hep3B cells. Nature of the data set: Heparan sulfate presentation by anti-HS mAb 10E4 staining of Hep3B cells. Format: cell-based, human.
Data set [2] relates to recombinant SARS-CoV-2 spike RBD protein binding to Hep3B cells.

Data on 1 molecule can be found in patent US20230321101A1, “METHODS AND USES OF HALOFUGINONE” (The Regents of the University of California, priority 2020, published 2023).

SMILES strings stand for the structures.

What is called IC50 is the concentration that gives 50% inhibition. In the case of `O=C(C[C@H]1NCCC[C@@H]1O)Cn1cnc2cc(Br)c(Cl)cc2c1=O` [2R,3S-(+) halofuginone], the “effect on authentic SARS-CoV-2 infection” value with authentic SARS-CoV-2 is listed as “inhibit SARS-CoV-2 infection”. For the same molecule, the IC50 in the data set on authentic SARS-CoV-2 (read-out: IC50 of SARS-CoV-2 infectivity, enantiomer comparison) came out at 12 nM. The “cell proliferation (cell number)” value with Vero E6 cells is “inhibit SARS-CoV-2 infection and cell proliferation”. Moreover, the “effect on heparan sulfate presentation (10E4 binding)” value in data set [1] is on record as “inhibited HS production”. In addition, the “effect on spike (RBD) protein binding” value in data set [2] is “inhibited HS production and authentic SARS-CoV-2 spike RBD protein binding”.
